Target: sGC α1/β1 heterodimer (Homo sapiens (Human), UniProt Q02108+Q02153)
Assay: Cell-based sGC functional assay (cyclic GMP assay for sGC activator: CASA assay)
Settings: CHO-K1/sGC cells; for Emax: CHO-K1, activity expressed as percentage of compound A (standard), read-out: % Activation; for EC50: inflection point, 4P fit, read-out: IP
Text: Cell-Based sGC Functional Assay (Cyclic GMP Assay for sGC Activator: CASA Assay)
Soluble guanylate cyclase (sGC) is a heme-containing enzyme that converts GTP to secondary messenger cGMP. Increases in cGMP levels affect several physiological processes including vasorelaxation through multiple downstream pathways. […] Heme-dependent activators (HDAs) preferentially activate sGC containing a ferrous heme group. To determine the effect of sGC activators on enzyme activity, the CASA assay was developed to monitor the generation of cGMP in a cell line that stably expresses the heterodimeric sGC protein.
A CHO-K1 cell line stably expressing the sGC α1/β1 heterodimer was generated using a standard transfection protocol. CHO-K1 cells were transfected with plasmids pIREShyghsGCα1 and pIRESneo-hsGCβ1 simultaneously using FUGENE reagent. Clones that stably express both subunits were selected with hygromycin and neomycin for ˜2 weeks. Clone #7 was chosen for the assay and was designated CHO-K1/sGC. CHO-K1/sGC cells were maintained in F-K12 medium containing 10% heat-inactivated Fetal Bovine Serum (FBS), 100 μg/mL penicillin/streptomycin, 0.5 mg/mL hygromycin and 0.25 mg/mL G418. The cells were then cryopreserved in LN2. On the day of the assay, the cells were thawed and resuspended in EBSS Assay Buffer (Sigma, E3024) supplemented with 5 mM MgCl2, 10 mM HEPES (4-(2-hydroxyethyl)piperazine-1-ethanesulfonic acid) and 0.05% BSA (bovine serum albumin) (EAB) and cell density was then adjusted to 2.25×10^5/mL with EAB. IBMX (3-isobutyl-1-methylxanthin, 0.5 mM) was added to inhibit degradation of cGMP. Compounds were diluted from DMSO stock solutions and added to the assay at a final DMSO concentration of 2.5%. Cells were pre-incubated in the presence and absence of 1 μM of Diethylenetriamine/nitric oxide adduct (DETA-NO; Sigma, 17018) for 30 min at 25° C. Compounds are subsequently added and incubated for 1 hr at 37° C. At the end of the incubation period, the reaction was terminated and the cells were lysed with the detection reagents from Cisbio Kits. The level of intracellular cGMP was determined using an HTRF-based assay kit (CisBio, 62GM2PEC), which detects the displacement of a fluorescence labeled cGMP from its specific antibody. The cGMP produced by test compounds was directly compared to the maximum cGMP production (this value was set to equal 100% activation.) of the published sGC-HDA compound A:
(Example 1 in WO 2010/065275, published Jun. 10, 2010). The test compounds' activity were then expressed as a percentage of compound A, the standard in every experiment. This percent activation was calculated either in the presence or absence of DETA-NO which was then plotted. Inflection points (IP) and maximum fold induction was derived using Abase analysis software for 4P fit.

Chain of sGC α1/β1 heterodimer (Q02108 whole entry): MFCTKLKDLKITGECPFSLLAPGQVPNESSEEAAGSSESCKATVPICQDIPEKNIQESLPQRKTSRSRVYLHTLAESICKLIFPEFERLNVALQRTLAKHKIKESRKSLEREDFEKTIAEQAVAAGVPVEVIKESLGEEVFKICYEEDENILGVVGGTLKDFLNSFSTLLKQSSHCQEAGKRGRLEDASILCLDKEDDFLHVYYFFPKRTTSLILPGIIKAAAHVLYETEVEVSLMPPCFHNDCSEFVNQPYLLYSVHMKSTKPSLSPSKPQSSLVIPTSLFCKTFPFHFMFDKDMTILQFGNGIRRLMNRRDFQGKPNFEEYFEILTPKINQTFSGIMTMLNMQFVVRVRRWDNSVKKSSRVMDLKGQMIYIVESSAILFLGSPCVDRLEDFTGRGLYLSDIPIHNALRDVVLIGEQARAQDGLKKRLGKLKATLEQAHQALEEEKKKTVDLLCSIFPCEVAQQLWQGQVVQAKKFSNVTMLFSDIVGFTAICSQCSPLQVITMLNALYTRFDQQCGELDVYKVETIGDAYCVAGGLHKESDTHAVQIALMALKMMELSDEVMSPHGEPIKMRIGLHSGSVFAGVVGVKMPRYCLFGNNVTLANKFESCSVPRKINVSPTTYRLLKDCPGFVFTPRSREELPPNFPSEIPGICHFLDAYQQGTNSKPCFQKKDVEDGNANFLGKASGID
Chain of sGC α1/β1 heterodimer (Q02153 whole entry): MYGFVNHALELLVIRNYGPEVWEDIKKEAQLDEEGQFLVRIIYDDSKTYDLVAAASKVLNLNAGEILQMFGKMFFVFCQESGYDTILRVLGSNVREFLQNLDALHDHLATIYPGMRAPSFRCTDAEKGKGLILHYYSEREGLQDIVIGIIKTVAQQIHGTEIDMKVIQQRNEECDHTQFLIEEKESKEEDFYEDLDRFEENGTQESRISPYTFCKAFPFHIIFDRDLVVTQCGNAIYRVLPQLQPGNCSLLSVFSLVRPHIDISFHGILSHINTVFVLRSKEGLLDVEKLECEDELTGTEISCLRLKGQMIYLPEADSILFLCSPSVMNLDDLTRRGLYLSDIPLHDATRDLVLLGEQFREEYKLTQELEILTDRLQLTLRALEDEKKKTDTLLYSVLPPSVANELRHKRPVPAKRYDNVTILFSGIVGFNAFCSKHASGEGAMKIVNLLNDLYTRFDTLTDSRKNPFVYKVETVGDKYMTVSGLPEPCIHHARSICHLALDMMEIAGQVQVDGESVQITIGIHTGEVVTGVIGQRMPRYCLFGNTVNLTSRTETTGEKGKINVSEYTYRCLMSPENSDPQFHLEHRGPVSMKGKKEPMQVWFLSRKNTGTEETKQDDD

| Emax [%] | EC50 [nM] | Compound |
| --- | --- | --- |
| 80 | 42 | CC(C)(Cc1coc(C2(C)C(=O)Nc3nc(-c4nn(Cc5ccccc5F)c5ccc(F)cc45)nc(N)c32)n1)C(=O)O (stereo not shown) [Example 72A, 3-(2-{4-amino-2-[5-fluoro-1-(2-fluorobenzyl)-1H-indazol-3-yl]-5-methyl-6-oxo-6,7-dihydro-5H-pyrrolo[2,3-d]pyrimidin-5-yl}oxazol-4-yl)-2,2-dimethylpropanoic acid] |
| 91 | 119 | CC1(c2nc(CCCC(=O)O)cs2)C(=O)Nc2nc(-c3nn(Cc4ccccc4F)c4cc(Cl)ccc34)nc(N)c21 (stereo not shown) [Example 49A, 4-(2-{4-amino-2-(6-chloro-1-(2-fluorobenzyl)-1H-indazol-3-yl)-5-methyl-6-oxo-6,7-dihydro-5H-pyrrolo[2,3-d]pyrimidin-5-yl}thiazol-4-yl)butanoic acid] |
| 94 | 62 | CC(C)(Cc1coc(C2(C)C(=O)Nc3nc(-c4nn(Cc5ccccc5F)c5ccc(Cl)cc45)nc(N)c32)n1)C(=O)O (stereo not shown) [Example 74A, 3-(2-{4-amino-2-[5-chloro-1-(2-fluorobenzyl)-1H-indazol-3-yl]-5-methyl-6-oxo-6,7-dihydro-5H-pyrrolo[2,3-d]pyrimidin-5-yl}oxazol-4-yl)-2,2-dimethylpropanoic acid] |
| 105 | 432 | CC1(c2nc(CCCC(=O)O)cs2)C(=O)Nc2nc(-c3nn(Cc4ccccc4F)c4ccccc34)nc(N)c21 (stereo not shown) [Example 55A, 4-(2-{4-amino-2-[1-(2-fluorobenzyl)-1H-indazol-3-yl]-5-methyl-6-oxo-6,7-dihydro-5H-pyrrolo[2,3-d]pyrimidin-5-yl}thiazol-4-yl)butanoic acid] |
| 86.4 |  | CC(C)(CCc1csc(C2(C)C(=O)Nc3nc(-c4nn(Cc5ccccc5F)c5cc(Cl)ccc45)nc(N)c32)n1)C(=O)O (stereo not shown) [Example 166A, 4-(2-{4-amino-2-[6-chloro-1-(2-fluorobenzyl)-1H-indazol-3-yl]-5-methyl-6-oxo-6,7-dihydro-5H-pyrrolo[2,3-d]pyrimidin-5-yl}-1,3-thiazol-4-yl)-2,2-dimethyl-butanoic acid] |
| 102 | 124 | CC1(c2cccc(CCC(=O)O)c2)C(=O)Nc2nc(-c3nn(Cc4ccccc4F)c4ccccc34)nc(N)c21 (stereo not shown) [Example 53A, 3-(3-{4-amino-2-[1-(2-fluorobenzyl)-1H-indazol-3-yl]-5-methyl-6-oxo-6,7-dihydro-5H-pyrrolo[2,3-d]pyrimidin-5-yl}phenyl)propanoic acid] |
| 129 | 1360 | CC(C)(Cc1ccc(C2(C)C(=O)Nc3nc(-c4nn(CCC(F)(F)C(F)(F)F)c5ncccc45)nc(N)c32)nc1)C(=O)O (stereo not shown) [Example 8B, 3-(6-{4-amino-5-methyl-6-oxo-2-[1-(3,3,4,4,4-pentafluoro-butyl)-1H-pyrazolo[3,4-b]pyridin-3-yl]-6,7-dihydro-5H-pyrrolo[2,3-d]pyrimidin-5-yl}pyridin-3-yl)-2,2-dimethyl-propanoic acid] |
| 136 | 1100 | C[C@@]1(c2ccc(CCC(=O)O)cc2)C(=O)Nc2nc(-c3nn(Cc4ccc(F)cc4)c4cc(Cl)ccc34)nc(N)c21 [Example 65B, (S)-3-(4-{4-amino-2-[6-chloro-1-(4-fluorobenzyl)-1H-indazol-3-yl]-5-methyl-6-oxo-6,7-dihydro-5H-pyrrolo[2,3-d]pyrimidin-5-yl}phenyl)propanoic acid] |
| 102 | 257 | CC1(c2cccc(CCC(=O)O)c2)C(=O)Nc2nc(-c3nn(Cc4ccccc4F)c4cc(Cl)ccc34)nc(N)c21 (stereo not shown) [Example 48A, 3-(3-{4-amino-2-(6-chloro-1-(2-fluorobenzyl)-1H-indazol-3-yl)-5-methyl-6-oxo-6,7-dihydro-5H-pyrrolo[2,3-d]pyrimidin-5-yl}phenyl)propanoic acid] |
| 79 | 122 | CC1(c2ccc(CCCC(=O)O)cc2)C(=O)Nc2nc(-c3nn(Cc4ccccc4F)c4cc(Cl)ccc34)nc(N)c21 (stereo not shown) [Example 115A, 4-(4-{4-amino-2-[6-chloro-1-(2-fluorobenzyl)-1H-indazol-3-yl]-5-methyl-6-oxo-6,7-dihydro-5H-pyrrolo[2,3-d]pyrimidin-5-yl}phenyl)butanoic acid] |
| 100 | 573 | C[C@@H](NC(=O)CCc1ccc([C@]2(C)C(=O)Nc3nc(-c4nn(Cc5ccccc5F)c5ncccc45)nc(N)c32)cc1)C(=O)O [Example 102B, (5S)-(3-(4-{4-amino-2-[1-(2-fluorobenzyl)-1H-pyrazolo[3,4-b]pyridin-3-yl]-5-methyl-6-oxo-6,7-dihydro-5H-pyrrolo[2,3-d]pyrimidin-5-yl}phenyl)propanoyl)-D-alanine] |
| 106 | 490 | CC1(c2nc(CCC(=O)O)co2)C(=O)Nc2nc(-c3nn(Cc4ccccc4F)c4ccccc34)nc(N)c21 (stereo not shown) [Example 54A, 3-(2-{4-amino-2-[1-(2-fluorobenzyl)-1H-indazol-3-yl]-5-methyl-6-oxo-6,7-dihydro-5H-pyrrolo[2,3-d]pyrimidin-5-yl}oxazol-4-yl)propanoic acid] |
| 155 | 238 | Cc1ccc2c(-c3nc(N)c4c(n3)NC(=O)[C@@]4(C)c3nc(CC(C)(C)C(=O)O)cs3)nn(Cc3ccc(C)c(F)c3F)c2n1 [Example 75A, (S)-3-(2-{4-amino-2-[1-(2,3-difluoro-4-methylbenzyl)-6-methyl-1H-pyrazolo[3,4-b]pyridin-3-yl]-5-methyl-6-oxo-6,7-dihydro-5H-pyrrolo[2,3-d]pyrimidin-5-yl}thiazol-4-yl)-2,2-dimethylpropanoic acid] |
| 93 |  | CC1(c2nc(CC(=O)O)cs2)C(=O)Nc2nc(-c3nn(CCC(F)(F)C(F)(F)F)c4ncccc34)nc(N)c21 (stereo not shown) [Example 78A, (2-{4-Amino-5-methyl-6-oxo-2-[1-(3,3,4,4,4-pentafluorobutyl)-1H-pyrazolo[3,4-b]pyridin-3-yl]-6,7-dihydro-5H-pyrrolo[2,3-d]pyrimidin-5-yl}-1,3-thiazol-4-yl)acetic acid] |
| 113 | 397 | C[C@H](O)[C@@H](NC(=O)CCc1ccc([C@]2(C)C(=O)Nc3nc(-c4nn(Cc5ccccc5F)c5ncccc45)nc(N)c32)cc1)C(=O)O [Example 107B, (5S)-(3-(4-{4-amino-2-[1-(2-fluorobenzyl)-1H-pyrazolo[3,4-b]pyridin-3-yl]-5-methyl-6-oxo-6,7-dihydro-5H-pyrrolo[2,3-d]pyrimidin-5-yl}phenyl)propanoyl)-D-threonine] |
| 116 | 134 | CC(C)(Cc1coc(C2(C)C(=O)Nc3nc(-c4nn(Cc5ccccc5F)c5ccccc45)nc(N)c32)n1)C(=O)O (stereo not shown) [Example 56A, 3-(2-{4-amino-2-[1-(2-fluorobenzyl)-1H-indazol-3-yl]-5-methyl-6-oxo-6,7-dihydro-5H-pyrrolo[2,3-d]pyrimidin-5-yl}oxazol-4-yl)-2,2-dimethylpropanoic acid] |
| 82 |  | CC1(c2cn(CCC(=O)O)nn2)C(=O)Nc2nc(-c3nn(CCC(F)(F)C(F)(F)F)c4cc(Cl)ccc34)nc(N)c21 (stereo not shown) [Example 29B, 3-(4-{4-amino-2-[6-chloro-1-(3,3,4,4,4-pentafluorobutyl)-1H-indazol-3-yl]-5-methyl-6-oxo-6,7-dihydro-5H-pyrrolo[2,3-d]pyrimidin-5-yl}-1H-1,2,3-triazol-1-yl)propanoic acid] |

— patent publication US10030027B2, “Soluble guanylate cyclase stimulators” (MERCK SHARP & DOHME CORP., priority 2015, dated 2018)
